In brackets after ≈: the same amount, converted by molar mass.
Legend:
[1] = target: T1, purified human FAS (Homo sapiens, UniProt P49327); assay: FAS enzymatic activity (malonyl-CoA dependent NADPH oxidation); type: biochemical; settings: for IC50: (SB)
T1 construct: Human FAS was purified from cultured ZR-75-1 human breast cancer cells; endogenous in cells; host or cells: ZR-75-1 human breast cancer cells (ATCC); enzyme purified by PEG precipitation and Mono Q chromatography
Experimental: Purification of FAS from ZR-75-1 Human Breast Cancer Cells.
Human FAS was purified from cultured ZR-75-1 human breast cancer cells obtained from the American Type Culture Collection. The procedure, adapted from Linn et al., 1981, and Kuhajda et al., 1994, utilizes hypotonic lysis, successive polyethyleneglycol (PEG) precipitations, and anion exchange chromatography. ZR-75-1 cells are cultured at 37° C. with 5% CO2 in RPMI culture medium with 10% fetal bovine serum, penicillin and streptomycin.
Ten T150 flasks of confluent cells are lysed with 1.5 ml lysis buffer (20 mM Tris-HCl, pH 7.5, 1 mM EDTA, 0.1 mM phenylmethanesulfonyl fluoride (PMSF), 0.1% Igepal CA-630) and dounce homogenized on ice for 20 strokes. The lysate is centrifuged in JA-20 rotor (Beckman) at 20,000 rpm for 30 minutes at 4° C. and the supernatant is brought to 42 ml with lysis buffer. A solution of 50% PEG 8000 in lysis buffer is added slowly to the supernatant to a final concentration of 7.5%. After rocking for 60 minutes at 4° C., the solution is centrifuged in JA-20 rotor (Beckman) at 15,000 rpm for 30 minutes at 4° C. Solid PEG 8000 is then added to the supernatant to a final concentration of 15%. After the rocking and centrifugation is repeated as above, the pellet is resuspended overnight at 4° C. in 10 ml of Buffer A (20 mM K2HPO4, pH 7.4). After […] filtration, the protein solution is applied to a Mono Q 5/5 anion exchange column (Pharmacia). The column is washed for 15 minutes with buffer A at 1 ml/minute, and bound material is eluted with a linear 60-ml gradient over 60 minutes to 1 M KCl. FAS (MW˜270 kD) typically elutes at 0.25 M KCl in three 0.5 ml fractions identified using 4-15% SDS-PAGE with Coomassie G250 stain (Bio-Rad). FAS protein concentration is determined using the Coomassie Plus Protein Assay Reagent (Pierce) according to manufacturer's specifications using BSA as a standard. This procedure results in substantially pure preparations of FAS (>95%) as judged by Coomassie-stained gels.
Measurement of FAS Enzymatic Activity and Determination of the IC50 of the Compounds
FAS activity is measured by monitoring the malonyl-CoA dependent oxidation of NADPH spectrophotometrically at OD340 in 96-well plates (Dils et al and Arslanian et al, 1975). Each well contains 2 μg purified FAS, 100 mM K2HPO4, pH 6.5, 1 mM dithiothreitol (Sigma), and 187.5 μM β-NADPH (Sigma). Stock solutions of inhibitors are prepared in DMSO at 2, 1, and 0.5 mg/ml resulting in final concentrations of 20, 10, and 5 μg/ml when 1 μl of stock is added per well. For each experiment, cerulenin (Sigma) is run as a positive control along with DMSO controls, inhibitors, and blanks (no FAS enzyme) all in duplicate.
The assay is performed on a Molecular Devices SpectraMax Plus Spectrophotometer. The plate containing FAS, buffers, inhibitors, and controls are placed in the spectrophotometer heated to 37° C. Using the kinetic protocol, the wells are blanked on duplicate wells containing 100 μl of 100 mM K2HPO4, pH 6.5 and the plate is read at OD340 at 10 sec intervals for 5 minutes to measure any malonyl-CoA independent oxidation of NADPH. The plate is removed from the spectrophotometer and malonyl-CoA (67.4 μM, final concentration per well) and […] (61.8 μM, final concentration per well) are added to each well except to the blanks. The plate is read again as above with the kinetic protocol to measure the malonyl-CoA dependent NADPH oxidation. The difference between the Δ OD340 for the malonyl-CoA dependent and non-malonyl-CoA dependent NADPH oxidation is the specific FAS activity. Because of the purity of the FAS preparation, non-malonyl-CoA dependent NADPH oxidation is negligible.
The IC50 for the compounds against FAS is determined by plotting the Δ OD340 for each inhibitor concentration tested, performing linear regression and computing the best-fit line, r^2 values, and 95% confidence intervals. The concentration of compound yielding 50% inhibition of FAS is the IC50. […]

[2] = test system: MCF-7 human breast cancer cells; assay: XTT cytotoxicity assay (M); type: cell-based; settings: MCF7
Experimental: (§1) The XTT assay is a non-radioactive alternative for the [^51Cr] release cytotoxicity assay. XTT is a tetrazolium salt that is reduced to a formazan dye only by metabolically active, viable cells. The reduction of XTT is measured spectrophotometrically as OD490-OD650.
To measure the cytotoxicity of specific compounds against cancer cells, 9×10^3 MCF-7 human breast cancer cells, obtained from the American Type Culture Collection are plated per well in 96 well plates in DMEM medium with 10% fetal bovine serum, insulin, penicillin, and streptomycin. Following overnight culture at 37° C. and 5% CO2, the compounds to be tested, dissolved in DMSO, are added to the wells in 1 μl volume at the following concentrations: 80, 40, 20, 10, 5, 2.5, 1.25, and 0.625 μg/ml in triplicate. Additional concentrations are tested if required. 1 μl of DMSO is added to triplicate wells are the vehicle control. C75 is run at 40, 20, […], and 5 μg/ml in triplicate as positive controls.
(§2) After 72 hours of incubation, cells are incubated for 4 hours with the XTT reagent as per manufacturer's instructions (Cell Proliferation Kit II (XTT) Roche). Plates are read at OD490 and OD650 on a Molecular Devices SpectraMax Plus Spectrophotometer. Three wells containing the XTT reagent without cells serve as the plate blank. XTT data are reported as OD490-OD650. Averages and standard error of the mean are computed using SOFTmax Pro software ([…]).
(§3) The IC50 for the compounds is defined as the concentration of drug leading to a 50% reduction in OD490-OD650 compared to controls. The OD490-OD650 are computed by the SOFTmax PRO software (Molecular Devices) for each compound concentration. IC50 is calculated by linear regression, plotting the FAS activity as percent of control versus drug concentrations. Linear regression, best-fit line, r^2, and 95% confidence intervals are determined using Prism Version 3.0 (Graph Pad Software).

[3] = test system: (O); assay: XTT cytotoxicity assay (O); type: cell-based; settings: read-out: XTT (IC50) (O)
Experimental: as §1, §2, §3

T1 sequence (P49327 whole entry): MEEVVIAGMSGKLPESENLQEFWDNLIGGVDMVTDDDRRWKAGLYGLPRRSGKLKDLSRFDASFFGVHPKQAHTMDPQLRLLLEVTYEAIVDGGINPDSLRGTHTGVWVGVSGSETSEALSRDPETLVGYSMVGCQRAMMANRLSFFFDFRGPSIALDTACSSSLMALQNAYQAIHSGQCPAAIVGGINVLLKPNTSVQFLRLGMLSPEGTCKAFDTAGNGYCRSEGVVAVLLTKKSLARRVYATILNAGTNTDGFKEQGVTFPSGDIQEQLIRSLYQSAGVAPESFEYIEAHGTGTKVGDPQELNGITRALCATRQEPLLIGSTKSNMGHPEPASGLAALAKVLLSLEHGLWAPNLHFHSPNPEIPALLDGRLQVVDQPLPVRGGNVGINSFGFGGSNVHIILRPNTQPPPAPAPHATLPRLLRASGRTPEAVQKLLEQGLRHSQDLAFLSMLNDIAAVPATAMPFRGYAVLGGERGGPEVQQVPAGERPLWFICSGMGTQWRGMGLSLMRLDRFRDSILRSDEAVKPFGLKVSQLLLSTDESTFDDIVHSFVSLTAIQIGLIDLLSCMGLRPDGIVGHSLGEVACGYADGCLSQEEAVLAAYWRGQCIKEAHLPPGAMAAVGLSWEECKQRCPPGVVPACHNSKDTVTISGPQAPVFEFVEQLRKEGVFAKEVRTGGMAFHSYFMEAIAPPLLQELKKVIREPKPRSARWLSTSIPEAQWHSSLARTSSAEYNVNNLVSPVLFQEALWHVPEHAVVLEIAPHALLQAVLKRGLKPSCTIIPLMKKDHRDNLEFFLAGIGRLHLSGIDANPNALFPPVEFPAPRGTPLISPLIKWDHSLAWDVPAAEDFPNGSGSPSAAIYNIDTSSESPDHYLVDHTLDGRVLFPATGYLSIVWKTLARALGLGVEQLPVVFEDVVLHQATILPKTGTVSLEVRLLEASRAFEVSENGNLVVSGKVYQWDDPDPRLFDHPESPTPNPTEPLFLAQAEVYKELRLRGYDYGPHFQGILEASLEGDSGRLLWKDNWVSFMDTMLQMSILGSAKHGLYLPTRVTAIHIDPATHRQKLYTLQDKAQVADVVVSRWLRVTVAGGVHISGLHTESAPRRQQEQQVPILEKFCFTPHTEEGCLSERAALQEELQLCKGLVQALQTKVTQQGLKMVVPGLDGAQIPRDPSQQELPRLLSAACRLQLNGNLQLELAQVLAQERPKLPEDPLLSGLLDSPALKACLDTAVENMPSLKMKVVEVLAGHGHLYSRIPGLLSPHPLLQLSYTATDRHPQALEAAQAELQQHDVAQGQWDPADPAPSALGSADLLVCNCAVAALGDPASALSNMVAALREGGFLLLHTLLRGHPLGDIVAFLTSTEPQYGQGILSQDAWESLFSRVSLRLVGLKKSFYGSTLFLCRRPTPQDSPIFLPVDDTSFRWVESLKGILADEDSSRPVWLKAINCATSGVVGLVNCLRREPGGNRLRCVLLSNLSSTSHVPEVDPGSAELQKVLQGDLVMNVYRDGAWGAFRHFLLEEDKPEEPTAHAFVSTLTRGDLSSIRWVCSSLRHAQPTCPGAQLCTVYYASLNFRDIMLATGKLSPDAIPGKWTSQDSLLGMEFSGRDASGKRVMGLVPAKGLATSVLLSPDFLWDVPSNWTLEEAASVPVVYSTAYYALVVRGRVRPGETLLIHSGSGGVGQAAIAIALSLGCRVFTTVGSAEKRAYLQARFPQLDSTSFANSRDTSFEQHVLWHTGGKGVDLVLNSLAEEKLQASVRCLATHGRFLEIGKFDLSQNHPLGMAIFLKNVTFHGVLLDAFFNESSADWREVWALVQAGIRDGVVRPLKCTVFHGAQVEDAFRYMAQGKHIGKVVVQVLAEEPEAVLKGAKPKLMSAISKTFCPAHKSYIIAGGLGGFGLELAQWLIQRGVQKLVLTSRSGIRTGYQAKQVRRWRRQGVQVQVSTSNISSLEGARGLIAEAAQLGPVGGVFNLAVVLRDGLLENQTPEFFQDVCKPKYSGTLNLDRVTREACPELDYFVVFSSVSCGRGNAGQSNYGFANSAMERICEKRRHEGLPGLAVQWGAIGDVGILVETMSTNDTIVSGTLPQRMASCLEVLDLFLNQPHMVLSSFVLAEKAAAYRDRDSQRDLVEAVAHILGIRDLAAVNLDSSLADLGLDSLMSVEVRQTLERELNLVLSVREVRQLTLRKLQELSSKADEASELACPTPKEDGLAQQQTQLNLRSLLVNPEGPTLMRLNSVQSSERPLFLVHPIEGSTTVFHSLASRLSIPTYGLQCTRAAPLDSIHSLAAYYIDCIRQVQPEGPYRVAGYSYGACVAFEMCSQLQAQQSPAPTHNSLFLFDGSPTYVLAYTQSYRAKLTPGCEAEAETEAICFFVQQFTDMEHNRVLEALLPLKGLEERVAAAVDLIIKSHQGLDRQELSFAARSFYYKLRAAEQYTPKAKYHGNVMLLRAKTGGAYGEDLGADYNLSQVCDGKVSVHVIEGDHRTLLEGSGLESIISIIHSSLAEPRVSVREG

| Compound | FAS (IC50) [1] | IC50 [1] | IC50 [2] | IC50 [3] |
| --- | --- | --- | --- | --- |
| C=CCC1(CC=C)C(=O)SC(C)(CCCCCCCC)C1=O (racemic) [Compound 4, 3,3-Diallyl-5-methyl-5-octyl-thiophene-2,4-dione] | Neg | 884 µM | 40.5 ± 14.8 µg/mL (≈ 126 µM) | 53.7 ± 1 µg/mL (≈ 167 µM) |
| CCCCCCCCCCC1(C)SC(=O)C(C)(C)C1=O (stereo not shown) [Compound 12, 3,3,5-Trimethyl-5-decyl-thiophene-2,4-dione] | – | 854 µM | 23.2 µg/mL (≈ 77.7 µM) | > 80 µg/mL |
| C=CCC1(CC=C)C(=O)SC(C)(CCCCCCCCCC)C1=O (stereo not shown) [Compound 15, 3,3-Diallyl-5-methyl-5-decyl-thiophene-2,4-dione] | – | 804 µM | 71.8 µg/mL (≈ 205 µM) | > 80 µg/mL |

Source: patent publication US20090005435A1, “Novel Compounds, Pharmaceutical Compositions Containing Same, and Methods of Use for Same” (priority 2004, published 2009)
